Test systems include K562; KM12; Hs-578T; NCI-H460; A498; SF-268; RPMI-8226; DU-145; RXF 393; PC-3; TK-10; MDA-N; SK-OV-3; SK-MEL-5; MOLT-4; SK-MEL-2; SW-620; MCF7; CCRF-CEM.
Test in all cases: growth of human tumour cells (NCI), 48 h

The structures appear in SMILES notation.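 Following 48 hours of exposure in 96-well plates, responses at five concentrations were used to interpolate endpoints linearly. GI50 = concentration required for 50% inhibition of growth.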 The source made the active and inactive calls. Rule as the data show it: active = GI50 up to about 1.1 µM and inactive = higher. A value given as a limit tells only on which side of the number the result lay.

Take `CN(Cc1cc(Cl)cc(Cl)c1O)Cc1c(O)ccc2ccccc12`: the GI50 is 26 µM (inactive) in the test on K562; 19.9 µM (inactive) in the test with KM12; 19.1 µM (inactive) in the test on Hs-578T; 18.4 µM (inactive) with NCI-H460; 17.1 µM (inactive) in the test on A498; 13.6 µM (inactive) in the test on SF-268. Also, the GI50 in the test on RPMI-8226 is 25 µM (inactive); in the test with DU-145, 22.3 µM (inactive); with RXF 393, 13.5 µM (inactive); in the test on PC-3, 16.6 µM (inactive); in the test on TK-10, 17.1 µM (inactive); in the test with MDA-N, 24.9 µM (inactive). Further, the GI50 was 18.2 µM (inactive) in the test with SK-OV-3; 17.5 µM (inactive) with SK-MEL-5; 20.9 µM (inactive) with MOLT-4; 19.3 µM (inactive) in the test with SK-MEL-2; 31.7 µM (inactive) in the test with SW-620; 17.5 µM (inactive) with MCF7.

`CC(=O)Nc1ccc2nc(N)n[n+]([O-])c2c1`: the GI50 was > 100 µM (inactive) in the test on K562; > 100 µM (inactive) in the test on KM12; 92.3 µM (inactive) in the test with Hs-578T; > 100 µM (inactive) in the test on NCI-H460; > 100 µM (inactive) in the test with A498; > 100 µM (inactive) in the test with SF-268. Further, the GI50 was > 100 µM (inactive) in the test on RPMI-8226; > 100 µM (inactive) with DU-145; > 100 µM (inactive) in the test on PC-3; 77.8 µM (inactive) in the test on TK-10; > 100 µM (inactive) with MDA-N; > 100 µM (inactive) in the test with CCRF-CEM. For the same compound, the GI50 in the test with SK-OV-3, in the test on SK-MEL-5, in the test with MOLT-4, in the test with SK-MEL-2, in the test with SW-620 and in the test on MCF7 was > 100 µM (inactive) in each case.

As for `CC[N+]1(C)CCC(O)(c2ccc(Cl)cc2)C(C(=O)c2ccc(Cl)cc2)C1` (centres undefined), the GI50 in the test on K562 is 4.09 µM (inactive); in the test on KM12 it was 16.9 µM (inactive); in the test on Hs-578T, 12.5 µM (inactive); with NCI-H460 it was 27.5 µM (inactive); in the test with A498, 27.9 µM (inactive); with SF-268, 24.5 µM (inactive). For the same compound, the GI50 in the test with RPMI-8226 is 1.73 µM (inactive); in the test on DU-145, 18.7 µM (inactive); in the test on RXF 393, 14.4 µM (inactive); in the test on PC-3, 17.5 µM (inactive); in the test on TK-10, 17.7 µM (inactive); in the test on MDA-N, 19.1 µM (inactive). For the same compound, the GI50 with CCRF-CEM was 2.74 µM (inactive); in the test on SK-OV-3, 14.6 µM (inactive); in the test on MOLT-4, 13.7 µM (inactive); in the test with SW-620, 1.82 µM (inactive); in the test on MCF7 it was 1.1 µM (active).

As to `CN1C(NN)=NS(=O)(=O)c2ccccc21`, the GI50 in the test with K562, in the test with KM12, in the test on Hs-578T, in the test with NCI-H460, with A498 and with SF-268 was > 100 µM (inactive) each time. Besides, the GI50 in the test with DU-145, in the test with RXF 393, with PC-3, in the test on TK-10, in the test on MDA-N and in the test on CCRF-CEM was > 100 µM (inactive) in each case. Further, the GI50 in the test with SK-OV-3, in the test on SK-MEL-5, in the test with MOLT-4, with SK-MEL-2, with SW-620 and with MCF7 was > 100 µM (inactive) each time.

Consider `COc1cc(/C=C2\N=C(c3ccccc3)N(/N=C/c3cc4cc(C)ccc4nc3Cl)C2=O)cc(OC)c1OC`, for which the GI50 in the test on K562 is 35 µM (inactive); in the test with KM12, 31.8 µM (inactive); in the test on Hs-578T, 29.4 µM (inactive); with NCI-H460 it was 29.4 µM (inactive); in the test with A498, 28.1 µM (inactive); with SF-268, 35.6 µM (inactive). The GI50 with RPMI-8226 is 20.5 µM (inactive); in the test on DU-145, 30.4 µM (inactive); in the test with PC-3, 18.1 µM (inactive); in the test with TK-10, 37.8 µM (inactive); with MDA-N, 21 µM (inactive); in the test with SK-OV-3, 59.8 µM (inactive). The GI50 in the test with SK-MEL-5 was 37.9 µM (inactive); in the test on MOLT-4 it was 20.6 µM (inactive); in the test on SK-MEL-2, 17.9 µM (inactive); in the test with SW-620, 41.2 µM (inactive); in the test on MCF7, 27.4 µM (inactive).

As for `COc1ccc(S(=O)(=O)n2c3c(c4ccccc42)[C@@H]2[C@@H](CCCN2C(=O)C[S+]([O-])c2ccc(C)cc2)[C@H](Cl)C3)cc1` (some centres undefined), the GI50 in the test with K562, in the test on KM12, with Hs-578T, in the test with NCI-H460, with A498 and with SF-268 was > 100 µM (inactive) throughout. The GI50 is > 100 µM (inactive) in the test on DU-145; > 100 µM (inactive) with RXF 393; > 100 µM (inactive) in the test on PC-3; 32 µM (inactive) in the test on TK-10; > 100 µM (inactive) in the test on MDA-N; > 100 µM (inactive) in the test on CCRF-CEM. Further, the GI50 in the test on SK-OV-3, with SK-MEL-5, in the test with MOLT-4, with SK-MEL-2, in the test with SW-620 and in the test on MCF7 was > 100 µM (inactive) in each case.

Turning to `COc1cc2c(cc1OC)CC(N=[N+]=[N-])c1cc(OC)c(OC)cc1/C=C\2` (centres undefined), the GI50 with K562 was 27.2 µM (inactive); with KM12, 30.2 µM (inactive); with Hs-578T, 24 µM (inactive); in the test on NCI-H460, 43.4 µM (inactive); in the test on A498, > 100 µM (inactive); in the test on SF-268, 51.8 µM (inactive). Moreover, the GI50 was 35.3 µM (inactive) with RPMI-8226; > 100 µM (inactive) in the test with DU-145; 30.8 µM (inactive) in the test on PC-3; > 100 µM (inactive) in the test with TK-10; 5.75 µM (inactive) in the test on MDA-N; 38.5 µM (inactive) with SK-OV-3. The GI50 with SK-MEL-5 was 23.8 µM (inactive); in the test with MOLT-4 it was 41 µM (inactive); with SK-MEL-2, 39.5 µM (inactive); in the test with SW-620, 83.6 µM (inactive); in the test with MCF7, 49.7 µM (inactive).

Take `Cc1ccc2nc(Cl)c(/C=N/N3C(=O)/C(=C/c4ccc(N(C)C)cc4)N=C3c3ccccc3)cc2c1`: the GI50 is 59.4 µM (inactive) in the test with K562; 40.7 µM (inactive) in the test with KM12; 40.1 µM (inactive) in the test with Hs-578T; 37.5 µM (inactive) with NCI-H460; 43.8 µM (inactive) with A498; 37.2 µM (inactive) with SF-268. The GI50 with RPMI-8226 was 23.7 µM (inactive); with DU-145 it was 80 µM (inactive); in the test on PC-3, 47.6 µM (inactive); in the test with TK-10, > 100 µM (inactive); in the test on MDA-N it was 29.1 µM (inactive); with CCRF-CEM it was 29.9 µM (inactive). For the same compound, the GI50 in the test on SK-OV-3 is > 100 µM (inactive); in the test on SK-MEL-5, 48.5 µM (inactive); in the test with MOLT-4, 24.4 µM (inactive); in the test with SK-MEL-2 it was 21.9 µM (inactive); with SW-620, 57.8 µM (inactive); with MCF7, 29 µM (inactive).

As for `O=C(CC(=O)N(C(=O)c1ccccc1)c1ccc(Cl)cc1)N/N=C\c1cc(/N=N/c2ccccc2Cl)ccc1O`, the GI50 in the test on K562 is 17.3 µM (inactive); with KM12, 26.3 µM (inactive); in the test on Hs-578T it was 20 µM (inactive); in the test on NCI-H460, > 100 µM (inactive); with A498, 31.3 µM (inactive); in the test on SF-268, 47.1 µM (inactive). Moreover, the GI50 is 68.2 µM (inactive) with RPMI-8226; > 100 µM (inactive) in the test on DU-145; 29.8 µM (inactive) in the test on RXF 393; > 100 µM (inactive) with PC-3; 27.2 µM (inactive) in the test on TK-10; > 100 µM (inactive) in the test on MDA-N. Also, the GI50 is 25.1 µM (inactive) with CCRF-CEM; 52.1 µM (inactive) in the test with SK-OV-3; 18.7 µM (inactive) in the test with MOLT-4; > 100 µM (inactive) in the test with SW-620; > 100 µM (inactive) with MCF7.

Consider `COC(=O)CCC(=O)c1ccc2c(c1)CC1(C2)Cc2ccc3c(c2C1)CCCC3=O` (centres undefined), for which the GI50 was 2.88 µM (inactive) in the test on K562; 14.7 µM (inactive) in the test on KM12; 56.1 µM (inactive) with Hs-578T; 25.2 µM (inactive) with NCI-H460; 20.7 µM (inactive) with A498; 33.8 µM (inactive) in the test with SF-268. In addition, the GI50 with DU-145 is 33.7 µM (inactive); in the test on RXF 393, > 53 µM (inactive); with PC-3, 24.3 µM (inactive); with TK-10, 41 µM (inactive); in the test on MDA-N, 4.85 µM (inactive); in the test on CCRF-CEM, 1.78 µM (inactive). Also, the GI50 in the test with SK-OV-3 was 50.6 µM (inactive); in the test on SK-MEL-5 it was 10.5 µM (inactive); with MOLT-4 it was 0.489 µM (active); in the test with SK-MEL-2, 7.31 µM (inactive); in the test with SW-620 it was 20.7 µM (inactive); in the test on MCF7, 12.2 µM (inactive).

`Nc1cc(N)c(/N=N/c2cccc3c(S(=O)(=O)O)cccc23)cc1/N=N/c1cc([N+](=O)[O-])ccc1O`: the GI50 was 38.7 µM (inactive) with K562; 33.2 µM (inactive) in the test on KM12; 36.8 µM (inactive) in the test on Hs-578T; 29.1 µM (inactive) in the test with NCI-H460; 27 µM (inactive) in the test on A498; 6.62 µM (inactive) with SF-268. Further, the GI50 was 35.6 µM (inactive) in the test with RPMI-8226; 30.3 µM (inactive) in the test with DU-145; 70.3 µM (inactive) in the test with RXF 393; 18.5 µM (inactive) in the test on PC-3; 47 µM (inactive) with TK-10; 46.9 µM (inactive) in the test on MDA-N. Moreover, the GI50 was 59.7 µM (inactive) in the test with SK-OV-3; 17.6 µM (inactive) in the test on SK-MEL-5; 20.3 µM (inactive) in the test on MOLT-4; 22.4 µM (inactive) in the test on SK-MEL-2; 28.8 µM (inactive) in the test with SW-620; 32.6 µM (inactive) in the test on MCF7.

These data come from ChEMBL document CHEMBL1201862, “PubChem BioAssay data set” (2004).
